Data reported in patent publication US20220257722A1, “COMPOSITIONS AND METHODS OF TREATING AND PREVENTING SYSTEMIC COMPLICATIONS OF ACUTE ILLNESS” (United States Government As Represented By The Department …, priority 2019, published 2022).

How the values were obtained:
rat jejunal mucosa = assay: FITC-LPS mucosal-to-serosal transport in Ussing-chambered rat jejunal mucosa (FITC fluorescence); assay type: cell-based; conditions: mucosal FITC-LPS 10 μg/ml; SSO 0.1 mM or MβCD 1 mM
Method: Short-circuit current measurements in Ussing chambered preparations. Mucosa-submucosa preparations were prepared from the mid-jejunum (˜20 cm from the pyloric ring) by muscle stripping using fine forceps under a stereomicroscope. Two or four preparations were prepared from one animal. The tissue was then mounted between two hemi-sliders with an aperture=0.3 cm^2 (Physiologic Instruments, San Diego, Calif., USA). Chambers were bathed with serosal and luminal bathing solutions in a volume of 4 ml each, maintained at 37° C. using a water recirculating heating system. […] Short-circuit current (Isc) was continuously measured with tissue conductance (Gt) and TEER (Ω·cm^2) determined every 20 sec in order to assess the tissue integrity during the LPS and lipid exposure. The current was recorded by the DataQ system (Physiologic Instruments). […]
LPS movement from mucosal to serosal solution. LPS movement m-to-s was assessed using a LAL test kit (Pierce Chromogenic Endotoxin Quant Kit, Pierce Biotechnology, Rockford, Ill., USA), which eliminates non-specific detection of (1,3)-β-D-glucan, then reduces false-positive LPS measurements. […] LPS content in the serosal solutions was measured with the LAL test according to the manufacturer's protocol. The value of background at t=0 min was subtracted and the serosal LPS appearance was expressed as Δ[LPS] […]

[1] = tested on: murine model of pancreatitis; assay: Cerulein-induced acute pancreatitis in mice: organ cytokines, PV LPS, FD4 uptake, histology; assay type: in vivo, C57BL/6 mice
Method: Methods. Pancreatitis was induced in C57BL/6 male and female mice at 8-10 weeks of age by multiple injections of cerulein (50 μg/kg, ip, hourly, 8 times). Samples (e.g., PV and abdominal arterial blood) were collected 0, 18, and 24 hrs after the final injection of cerulein. Tissues were removed and stored for histology and real-time polymerase chain reaction (PCR)-based expression analysis. TDG, (500 μg/kg, ip) was given 0 and 18 hrs after the final injection of cerulein, followed by sampling 24 hrs after the final injection of cerulein. Proinflammatory cytokines was assessed by real-time PCR; PV LPS levels were measured using the limulus amebocyte lysate (LAL) test.

[2] = cited from earlier work
[3] = 24 hrs after cerulein treatment

Compound | OA/TCA-increased serosal LPS content measured by FITC fluorescence intensity (rat jejunal mucosa) | PV LPS levels ([1]; 18 and 24 hrs after cerulein treatment, LAL test, TDG 500 μg/kg ip) | PV FD4 levels ([1]; 18 and 24 hrs after cerulein treatment, TDG 500 μg/kg ip) | histological changes in the pancreas [1, 3] | lung inflammation (histology) [1, 3] | Plasma TNFα levels ([1]; 24 hrs after cerulein treatment, TDG 500 μg/kg ip) | increased expression of IL-1β and IL-6 in the pancreas ([1]; TDG 500 μg/kg ip 0 and 18 hrs after final cerulein) | elevated lipase levels ([1]; TDG 500 μg/kg ip 0 and 18 hrs after final cerulein, plasma) | inflammatory cytokine expression in the lung ([1]; TDG 500 μg/kg ip 0 and 18 hrs after final cerulein, sampling 24 hrs, real-time PCR) | elimination half-life ([2]; in humans) | serum t1/2 ([2]; reference [44]) [h]
CCCCCCCC/C=C\CCCCCCCC(=O)ON1C(=O)CC(S(=O)(=O)O)C1=O (stereo not drawn) [SSO, sulfosuccinimidyl oleate] | abolished |  |  |  |  |  |  |  |  |  | 
CC[C@H](C)[C@H](NC(=O)[C@H](Cc1ccccc1)NC(=O)[C@H](CC(=O)O)NC(=O)[C@H](CCCNC(=N)N)NC(=O)[C@H](C)NC(=O)[C@H](C)NC(=O)[C@H](CC(C)C)NC(=O)[C@H](CC(N)=O)NC(=O)[C@H](CC(=O)O)NC(=O)[C@H](CC(C)C)NC(=O)[C@@H](NC(=O)[C@@H](NC(=O)[C@H](CC(N)=O)NC(=O)[C@H](CCSC)NC(=O)[C@H](CCC(=O)O)NC(=O)[C@H](CC(=O)O)NC(=O)[C@H](CO)NC(=O)[C@H](Cc1ccccc1)NC(=O)[C@H](CO)NC(=O)CNC(=O)[C@H](CC(=O)O)NC(=O)CNC(=O)[C@@H](N)Cc1c[nH]cn1)[C@@H](C)O)[C@@H](C)CC)C(=O)N[C@@H](CC(N)=O)C(=O)N[C@@H](Cc1c[nH]c2ccccc12)C(=O)N[C@@H](CC(C)C)C(=O)N[C@H](C(=O)N[C@@H](CCC(N)=O)C(=O)N[C@H](C(=O)N[C@@H](CCCCN)C(=O)N[C@H](C(=O)N[C@H](C(=O)N[C@@H](CC(=O)O)C(=O)O)[C@@H](C)O)[C@@H](C)CC)[C@@H](C)O)[C@@H](C)CC [TDG] |  | significantly reduced | significantly reduced | no effect | reduced | reversed | no effect | no effect | significantly reduced | about 2 hours | ~2
methyl-β-cyclodextrin [MβCD] | abolished |  |  |  |  |  |  |  |  |  | 
